This assay deals with Plasmodium Berghei. Description: Peters' four day inhibition test in mice, erythrocytic stage of Plasmodium Berghei. In kind it is in vivo. Conditions: once a day D0-D3, Hybrid Kunming strain mice, read-out: SD50 (the source's name). The text has this:
Effect on Erythrocytic Stage of Plasmodium Berghei 1. "Four day inhibition test" in mice To determinate the SD50 with Peters' "four day inhibition test". Hybrid Kunming strain mice, body weight 18-22 g, were inculated with 1×10^7 parasites infected RBC intraperitoneally on D0. Dihydroqinghaosu-methylcarbamate, dihydroqinghaosu-butylcarbamate, dihydroqinghaosu-benzenecarbamate and dihydroqinghaosu-4-nitrobenzenecarbamate with different concentration were given once a day from D0 -D3. Blood smears from mouse's tail were made on D4, stained with Gimsa reagent and examined under microscope to count the infected and uninfected erthrocyte to get infected rate. Inhibitory rates of different dosages were calculated by following formula. The SD50 was calculated by the simplified probit analysis: [formula]

Structures are written as SMILES.

Drawing on patent US5726203A, “Qinghaosu derivatives against AIDS” (priority 1993, dated 1998), this text covers ED50 for one compound.

As to `CNC(=O)OC1OC2OC3(C)CCC4C(C)CCC(C1C)C24OO3` (stereo not shown) [Dihydroqinghaosu-methylcarbamate, Dihydroqinghaosu-Methylcarbamate], the ED50 is 0.24 mg/kg.
